The text below walks through data of patent publication US8492401B2, “Thiazolopyridine sirtuin modulating compounds” (Sirtris Pharmaceuticals, priority 2008, dated 2013).

The target of the assay is T1, SIRT1 (Homo sapiens, UniProt Q96EB6).
T1 sequence (Q96EB6 1-747): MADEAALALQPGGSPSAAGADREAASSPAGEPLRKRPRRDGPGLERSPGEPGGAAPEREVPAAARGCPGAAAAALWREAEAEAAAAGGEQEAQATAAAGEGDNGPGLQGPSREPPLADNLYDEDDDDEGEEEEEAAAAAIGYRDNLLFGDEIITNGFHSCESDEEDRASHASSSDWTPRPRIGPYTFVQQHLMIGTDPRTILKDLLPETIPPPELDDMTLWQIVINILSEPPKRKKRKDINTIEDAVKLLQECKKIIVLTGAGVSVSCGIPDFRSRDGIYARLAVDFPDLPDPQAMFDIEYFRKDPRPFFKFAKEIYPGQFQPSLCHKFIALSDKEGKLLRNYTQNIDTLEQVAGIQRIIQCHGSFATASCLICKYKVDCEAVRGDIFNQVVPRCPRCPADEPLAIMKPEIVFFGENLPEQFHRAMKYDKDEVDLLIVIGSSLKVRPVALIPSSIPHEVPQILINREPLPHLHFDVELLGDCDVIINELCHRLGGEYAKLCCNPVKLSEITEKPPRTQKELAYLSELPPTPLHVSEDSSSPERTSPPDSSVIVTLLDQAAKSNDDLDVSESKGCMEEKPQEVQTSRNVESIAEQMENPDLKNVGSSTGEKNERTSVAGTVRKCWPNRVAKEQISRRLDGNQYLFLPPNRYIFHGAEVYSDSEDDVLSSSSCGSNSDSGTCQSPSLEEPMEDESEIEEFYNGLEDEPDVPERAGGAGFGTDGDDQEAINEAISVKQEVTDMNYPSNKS
Nature of the assay: Mass spectrometry based assay to identify modulators (activators) of SIRT1 activity. It counts as biochemical. The conditions noted are these: 0.5 μM peptide substrate, 120 μM βNAD+, 10 nM SIRT1, 25 minutes at 25° C.; for EC1.5: SIRT1 activation. The text has this: A mass spectrometry based assay was used to identify modulators of SIRT1 activity. The mass spectrometry based assay utilizes a peptide having 20 amino acid residues as follows: Ac-EE-K(biotin)-GQSTSSHSK(Ac)NleSTEG-K(5TMR)-EE-NH2 (SEQ ID NO: 1) wherein K(Ac) is an acetylated lysine residue and Nle is a norleucine. The peptide is labeled with the fluorophore 5TMR (excitation 540 nm/emission 580 nm) at the C-terminus. The sequence of the peptide substrate is based on p53 with several modifications. In addition, the methionine residue naturally present in the sequence was replaced with the norleucine because the methionine may be susceptible to oxidation during synthesis and purification.
The mass spectrometry assay is conducted as follows: 0.5 μM peptide substrate and 120 μM βNAD^+ is incubated with 10 nM SIRT1 for 25 minutes at 25° C. in a reaction buffer (50 mM Tris-acetate pH 8, 137 mM NaCl, 2.7 mM KCl, 1 mM MgCl2, 5 mM DTT, 0.05% BSA). Test compounds may be added to the reaction as described above. […] After the 25 minute incubation with SIRT1, 10 μL of 10% formic acid is added to stop the reaction. Reactions are sealed and frozen for later mass spec analysis. Determination of the mass of the substrate peptide allows for precise determination of the degree of acetylation (i.e. starting material) as compared to deacetylated peptide (product).
A control for inhibition of sirtuin activity is conducted by adding 1 μL of 500 mM nicotinamide as a negative control at the start of the reaction (e.g., permits determination of maximum sirtuin inhibition). A control for activation of sirtuin activity is conducted using 10 nM of sirtuin protein, with 1 μL of DMSO in place of compound, to determine the amount of deacetylation of the substrate at a given timepoint within the linear range of the assay. This timepoint is the same as that used for test compounds and, within the linear range, the endpoint represents a change in velocity.
For the above assay, SIRT1 protein was expressed and purified as follows. […] The protein was expressed by induction with 1 mM IPTG as an N-terminal His-tag fusion protein at 18° C. overnight and harvested at 30,000×g. Cells were lysed with lysozyme in lysis buffer (50 mM Tris-HCl, 2 mM Tris[2-carboxyethyl]phosphine (TCEP), 10 μM ZnCl2, 200 mM NaCl) and further treated with sonication for 10 min for complete lysis. The protein was purified over a Ni-NTA column (Amersham) and fractions containing pure protein were pooled, concentrated and run over a sizing column (Sephadex S200 26/60 global). The peak containing soluble protein was collected and run on an Ion-exchange column (MonoQ). Gradient elution (200 mM-500 mM NaCl) yielded pure protein. This protein was concentrated and dialyzed against dialysis buffer (20 mM Tris-HCl, 2 mM TCEP) overnight. The protein was aliquoted and frozen at −80° C. until further use.
Sirtuin modulating compounds that activated SIRT1 were identified using the assay described above and are shown below in Table 1. The EC1.5 values for the activating compounds are represented by A (EC1.5≦1 uM), B (EC1.5>1 and ≦10 uM), or C (EC1.5>10 uM). The percent maximum fold activation is represented by A (Fold activation≧300%), B (Fold Activation≧150% and <300%), or C (Fold Activation<150%).

In the case of `COCCCc1sc(-c2ccccc2)nc1C(=O)Nc1ccccc1-c1nc2cc(CN3CCCC3)cnc2s1` [Compound 4, 5-(3-methoxypropyl)-2-phenyl-N-(2-(6-(pyrrolidin-1-ylmethyl)thiazolo[5,4-b]pyridin-2-yl)phenyl)thiazole-4-carboxamide], the “FOLD ACT. (percent maximum fold activation)” value was “B (Fold Activation≧150% and <300%)”; the EC1.5 entry is listed as “A (EC1.5≦1 uM)”.
For the molecule `O=C(Nc1ccccc1-c1nc2cccnc2s1)c1nc(-c2ccccc2)sc1CN1CCOCC1` [Compound 10, 5-(morpholinomethyl)-2-phenyl-N-(2-(thiazolo[5,4-b]pyridin-2-yl)phenyl)thiazole-4-carboxamide], the “FOLD ACT. (percent maximum fold activation)” value is “B (Fold Activation≧150% and <300%)”; the EC1.5 result was “A (EC1.5≦1 uM)”.
For the molecule `O=C(Nc1ccccc1-c1nc2cc(CN3CCOCC3)cnc2s1)c1nc(-c2ccccc2)cs1` [Compound 24, N-(2-(6-(morpholinomethyl)thiazolo[5,4-b]pyridin-2-yl)phenyl)-4-phenylthiazole-2-carboxamide], the “FOLD ACT. (percent maximum fold activation)” value is “B (Fold Activation≧150% and <300%)”; the EC1.5 entry is “A (EC1.5≦1 uM)”.
For the molecule `O=C(Nc1ccccc1-c1nc2cccnc2s1)c1nc(-c2ccccc2)sc1CCCN1CCCC1` [Compound 8, 2-phenyl-5-(3-(pyrrolidin-1-yl)propyl)-N-(2-(thiazolo[5,4-b]pyridin-2-yl)phenyl)thiazole-4-carboxamide], the “FOLD ACT. (percent maximum fold activation)” value is given as “A (Fold activation≧300%)” and the EC1.5 entry is given as “A (EC1.5≦1 uM)”.
In the case of `Cc1oc(-c2ccccc2)nc1C(=O)Nc1ccccc1-c1nc2cc(CN3CCCC3)cnc2s1` [Compound 17, 5-methyl-2-phenyl-N-(2-(6-(pyrrolidin-1-ylmethyl)thiazolo[5,4-b]pyridin-2-yl)phenyl)oxazole-4-carboxamide], the “FOLD ACT. (percent maximum fold activation)” value is reported as “A (Fold activation≧300%)”; the EC1.5 result was “B (EC1.5>1 and ≦10 uM)”.
Take `COCC#Cc1sc(-c2ccccc2)nc1C(=O)Nc1ccccc1-c1nc2cc(CN3CCCC3)cnc2s1` [Compound 5, 5-(3-methoxyprop-1-ynyl)-2-phenyl-N-(2-(6-(pyrrolidin-1-ylmethyl)thiazolo[5,4-b]pyridin-2-yl)phenyl)thiazole-4-carboxamide]: the “FOLD ACT. (percent maximum fold activation)” value is “B (Fold Activation≧150% and <300%)”; the EC1.5 result is “A (EC1.5≦1 uM)”.
In the case of `O=C(Nc1ccccc1-c1nc2cc(CN3CCOCC3)cnc2s1)c1csc(-c2ccccc2)n1` [Compound 2, N-(2-(6-(morpholinomethyl)thiazolo[5,4-b]pyridin-2-yl)phenyl)-2-phenylthiazole-4-carboxamide], the “FOLD ACT. (percent maximum fold activation)” value was “A (Fold activation≧300%)” and the EC1.5 result was “A (EC1.5≦1 uM)”.
Regarding `COCCN1CCN(Cc2cnc3sc(-c4ccccc4NC(=O)c4nc(-c5ccccc5)oc4C)nc3c2)CC1` [Compound 15, N-(2-(6-((4-(2-methoxyethyl)piperazin-1-yl)methyl)thiazolo[5,4-b]pyridin-2-yl)phenyl)-5-methyl-2-phenyloxazole-4-carboxamide], the “FOLD ACT. (percent maximum fold activation)” value is “B (Fold Activation≧150% and <300%)”; the EC1.5 result is on record as “A (EC1.5≦1 uM)”.
As for `COCCN1CCN(Cc2oc(-c3ccccc3)nc2C(=O)Nc2ccccc2-c2nc3cccnc3s2)CC1` [Compound 19, 5-((4-(2-methoxyethyl)piperazin-1-yl)methyl)-2-phenyl-N-(2-(thiazolo[5,4-b]pyridin-2-yl)phenyl)oxazole-4-carboxamide], the “FOLD ACT. (percent maximum fold activation)” value is on record as “C (Fold Activation<150%)” and the EC1.5 result is “C (EC1.5>10 uM)”.
Take `Cc1oc(-c2ccccc2)nc1C(=O)Nc1ccccc1-c1nc2cc(CN3CCOCC3)cnc2s1` [Compound 16, 5-methyl-N-(2-(6-(morpholinomethyl)thiazolo[5,4-b]pyridin-2-yl)phenyl)-2-phenyloxazole-4-carboxamide]: the “FOLD ACT. (percent maximum fold activation)” value is “B (Fold Activation≧150% and <300%)”; the EC1.5 result is “A (EC1.5≦1 uM)”.
As for `CC(C)N1CCN(Cc2sc(-c3ccccc3)nc2C(=O)Nc2ccccc2-c2nc3cccnc3s2)CC1` [Compound 9, 5-((4-isopropylpiperazin-1-yl)methyl)-2-phenyl-N-(2-(thiazolo[5,4-b]pyridin-2-yl)phenyl)thiazole-4-carboxamide], the “FOLD ACT. (percent maximum fold activation)” value is “A (Fold activation≧300%)” and the EC1.5 entry is on record as “A (EC1.5≦1 uM)”.
Turning to `COCCN1CCN(CCCc2sc(-c3ccccc3)nc2C(=O)Nc2ccccc2-c2nc3cccnc3s2)CC1` [Compound 7, 5-(3-(4-(2-methoxyethyl)piperazin-1-yl)propyl)-2-phenyl-N-(2-(thiazolo[5,4-b]pyridin-2-yl)phenyl)thiazole-4-carboxamide], the “FOLD ACT. (percent maximum fold activation)” value is “B (Fold Activation≧150% and <300%)”; the EC1.5 result is “A (EC1.5≦1 uM)”.
On to `COCCN1CCN(Cc2cnc3sc(-c4ccccc4NC(=O)c4nc(-c5ccccc5)oc4C(F)(F)F)nc3c2)CC1` [Compound 14, N-(2-(6-((4-(2-methoxyethyl)piperazin-1-yl)methyl)thiazolo[5,4-b]pyridin-2-yl)phenyl)-2-phenyl-5-(trifluoromethyl)oxazole-4-carboxamide], for which the “FOLD ACT. (percent maximum fold activation)” value was “B (Fold Activation≧150% and <300%)”; the EC1.5 result is listed as “A (EC1.5≦1 uM)”.
For `O=C(Nc1ccccc1-c1nc2cccnc2s1)c1nc(-c2ccccc2)oc1CN1CCCC1` [Compound 20, 2-phenyl-5-(pyrrolidin-1-ylmethyl)-N-(2-(thiazolo[5,4-b]pyridin-2-yl)phenyl)oxazole-4-carboxamide], the “FOLD ACT. (percent maximum fold activation)” value was “B (Fold Activation≧150% and <300%)”; the EC1.5 entry was “B (EC1.5>1 and ≦10 uM)”.
Consider `O=C(Nc1ccccc1-c1nc2cc(CN3CCCC3)cnc2s1)c1csc(-c2ccccc2)n1` [Compound 3, 2-phenyl-N-(2-(6-(pyrrolidin-1-ylmethyl)thiazolo[5,4-b]pyridin-2-yl)phenyl)thiazole-4-carboxamide], for which the “FOLD ACT. (percent maximum fold activation)” value was “B (Fold Activation≧150% and <300%)”; the EC1.5 entry is “A (EC1.5≦1 uM)”.
Take `COCCN1CCN(Cc2cnc3sc(-c4ccccc4NC(=O)c4nc(-c5ccccc5)cs4)nc3c2)CC1` [Compound 23, N-(2-(6-((4-(2-methoxyethyl)piperazin-1-yl)methyl)thiazolo[5,4-b]pyridin-2-yl)phenyl)-4-phenylthiazole-2-carboxamide]: the “FOLD ACT. (percent maximum fold activation)” value was “A (Fold activation≧300%)” and the EC1.5 result is “A (EC1.5≦1 uM)”.
